Structures can show the parent of a compound that is named as a salt. A value given as a limit tells only on which side of the number the result lay.

These results are taken from patent publication US10829501B2 (BRISTOL-MYERS SQUIBB COMPANY, priority 2016, dated 2020).

In one experiment the target is ROCK2 (Homo sapiens, UniProt O75116). In words: ROCK2 kinase inhibition assay (LABCHIP 3000 Reader, FITC peptide substrate).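 Also: rho kinase reaction read by separating phosphorylated from unphosphorylated peptide on chip, with inhibition of kinase activity computed per concentration across a dose-response series.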
Chain of ROCK2 (O75116 whole entry, species assumed): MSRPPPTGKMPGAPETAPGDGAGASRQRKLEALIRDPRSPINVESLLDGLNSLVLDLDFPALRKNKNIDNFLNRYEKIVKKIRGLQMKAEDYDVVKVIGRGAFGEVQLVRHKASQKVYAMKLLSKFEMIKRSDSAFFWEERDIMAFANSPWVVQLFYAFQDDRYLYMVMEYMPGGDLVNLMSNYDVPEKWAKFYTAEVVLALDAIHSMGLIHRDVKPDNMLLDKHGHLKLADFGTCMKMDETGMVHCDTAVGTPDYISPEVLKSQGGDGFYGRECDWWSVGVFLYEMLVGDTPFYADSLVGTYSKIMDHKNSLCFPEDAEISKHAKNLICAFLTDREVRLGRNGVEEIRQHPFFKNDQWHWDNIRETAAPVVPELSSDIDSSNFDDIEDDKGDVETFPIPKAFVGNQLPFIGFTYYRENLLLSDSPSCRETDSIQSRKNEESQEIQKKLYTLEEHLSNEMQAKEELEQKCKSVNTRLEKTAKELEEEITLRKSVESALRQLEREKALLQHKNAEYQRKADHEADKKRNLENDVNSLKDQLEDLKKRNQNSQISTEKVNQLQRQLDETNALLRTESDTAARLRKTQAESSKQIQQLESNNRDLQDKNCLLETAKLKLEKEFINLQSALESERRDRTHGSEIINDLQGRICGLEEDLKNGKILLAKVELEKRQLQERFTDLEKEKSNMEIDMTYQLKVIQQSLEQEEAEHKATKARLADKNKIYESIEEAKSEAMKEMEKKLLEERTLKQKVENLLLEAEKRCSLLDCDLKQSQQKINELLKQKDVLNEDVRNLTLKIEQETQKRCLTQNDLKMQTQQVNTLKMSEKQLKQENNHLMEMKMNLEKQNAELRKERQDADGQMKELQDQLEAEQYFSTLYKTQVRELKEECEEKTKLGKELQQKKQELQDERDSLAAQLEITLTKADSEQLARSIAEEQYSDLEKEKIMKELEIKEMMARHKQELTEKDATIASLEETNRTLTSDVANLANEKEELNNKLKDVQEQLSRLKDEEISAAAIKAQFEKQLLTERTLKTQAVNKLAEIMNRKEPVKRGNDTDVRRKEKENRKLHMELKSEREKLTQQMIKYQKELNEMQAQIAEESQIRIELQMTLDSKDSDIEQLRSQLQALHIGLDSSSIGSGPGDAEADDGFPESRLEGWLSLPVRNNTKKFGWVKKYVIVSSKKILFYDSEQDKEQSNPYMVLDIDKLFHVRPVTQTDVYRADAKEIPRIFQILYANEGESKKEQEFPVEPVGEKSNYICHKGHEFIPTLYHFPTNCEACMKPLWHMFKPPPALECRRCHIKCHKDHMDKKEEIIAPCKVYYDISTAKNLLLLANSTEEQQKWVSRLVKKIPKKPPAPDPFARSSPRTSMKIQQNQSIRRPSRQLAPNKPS
Conditions: not given
A word on the IC50: it is the point on the concentration scale where inhibition reaches its midpoint. In turn, `COc1ccccc1-n1cc(C(=O)NC2CC3(C2)CC(Oc2ncccc2C(N)=O)C3)cn1` (stereo not shown) [Example 398] returned a 50% inhibitory concentration (IC50) of 5 to 50 nM. In turn, `[2H]C([2H])([2H])n1cc(-c2ccc3c(C(=O)N[C@H]4CC5(C4)C[C@H](Oc4ncccc4C(N)=O)C5)nn(C(F)F)c3c2)cn1` (stereo partly shown) [Example 111, 1-(difluoromethyl)-6-[1-(^2H3)methyl-1H-pyrazol-4-yl]-N-[(4s)-6-[(3-carbamoylpyridin-2-yl)oxy]spiro[3.3]heptan-2-yl]-1H-indazole-3-carboxamide, trifluoroacetate] yielded a concentration for half-maximal inhibition (IC50) below 5 nM.

Consider `CC(C)(O)COc1ccc2c(C(=O)NC3CC4(C3)CC(Oc3cc(Cl)ccc3C(N)=O)C4)cnn2c1` (stereo not shown) [Example 220, N-(6-(2-carbamoyl-5-chlorophenoxy)spiro[3.3]heptan-2-yl)-6-(2-hydroxy-2-methylpropoxy)pyrazolo[1,5-a]pyridine-3-carboxamide], for which the IC50 fell in the range of 5 to 50 nM.

Take `NC(=O)c1cccnc1OC1CC2(CC(NC(=O)c3cnn4cc(OCCC(F)(F)F)ccc34)C2)C1` (stereo not shown) [Example 10, N-(6-((3-carbamoylpyridin-2-yl)oxy)spiro[3.3]heptan-2-yl)-6-(3,3,3-trifluoropropoxy)pyrazolo[1,5-a]pyridine-3-carboxamide]: the IC50 lay within 5 to 50 nM.

The molecule `Cc1nc(C(=O)NC2CC3(C2)CC(Oc2ncccc2C(N)=O)C3)c(C)n1-c1ccccc1` (stereo not shown) [Example 392] displayed an IC50 of 50 to 250 nM.

Molecule `CC(C)(O)COc1ccc2c(C(=O)NC3CC4(C3)CC(Oc3c(F)cc(F)cc3C(N)=O)C4)cnn2c1` (stereo not shown) [Example 268, N-(6-(2-carbamoyl-4,6-difluorophenoxy)spiro[3.3]heptan-2-yl)-6-(2-hydroxy-2-methylpropoxy)pyrazolo[1,5-a]pyridine-3-carboxamide] displayed an IC50 of 250 to 2500 nM.

For the molecule `NC(=O)c1cccnc1OC1CC2(CC(NC(=O)c3cnn4cc(OC5CCOCC5)ccc34)C2)C1` (stereo not shown) [Example 11, N-(6-((3-carbamoylpyridin-2-yl)oxy)spiro[3.3]heptan-2-yl)-6-((tetrahydro-2H-pyran-4-yl)oxy)pyrazolo[1,5-a]pyridine-3-carboxamide], the concentration for half-maximal inhibition (IC50) lay in the range of 5 to 50 nM.

The molecule `NC(=O)c1cccnc1O[C@H]1CC2(C[C@H](NC(=O)c3cnn4cc(OCC(F)F)ccc34)C2)C1` (stereo partly drawn) [Example 313, N-((aR)-6-((3-carbamoylpyridin-2-yl)oxy)spiro[3.3]heptan-2-yl)-6-(2,2-difluoroethoxy)pyrazolo[1,5-a]pyridine-3-carboxamide] had an IC50 of 5 to 50 nM. For the molecule `CN1CCN(c2ccc(C(N)=O)c(OC3CC4(CC(NC(=O)c5cnn6cc(OCC(C)(C)O)ccc56)C4)C3)c2)CC1` (stereo not shown) [Example 224, N-(6-(2-carbamoyl-5-(4-methylpiperazin-1-yl)phenoxy)spiro[3.3]heptan-2-yl)-6-(2-hydroxy-2-methylpropoxy)pyrazolo[1,5-a]pyridine-3-carboxamide], the half-inhibitory concentration (IC50) was 5 to 50 nM. In turn, `CC(C)(O)COc1ccc2c(C(=O)NC3CC4(C3)CC(Oc3cc(-c5cccc(CN)c5)ccc3C(N)=O)C4)cnn2c1` (stereo not shown) [Example 252, N-(6-((3′-(aminomethyl)-4-carbamoyl-[1,1′-biphenyl]-3-yl)oxy)spiro[3.3]heptan-2-yl)-6-(2-hydroxy-2-methylpropoxy)pyrazolo[1,5-a]pyridine-3-carboxamide] registered an IC50 of 5 to 50 nM.

Regarding `[H][C@]1(Oc2ncccc2C(N)=O)C[C@@]2(C[C@H](NC(=O)c3cc(-c4cnn(C)c4)cc(S(C)(=O)=O)c3)C2)C1` (stereo partly shown) [Example 52], the concentration for half-maximal inhibition (IC50) lay in the range of 5 to 50 nM.

`NC(=O)c1cccnc1O[C@H]1CC2(C[C@H](NC(=O)c3cnc4c(C(F)(F)F)cccn34)C2)C1` (stereo partly drawn) [Example 346, N-((aR)-6-((3-carbamoylpyridin-2-yl)oxy)spiro[3.3]heptan-2-yl)-8-(trifluoromethyl)imidazo[1,2-a]pyridine-3-carboxamide] returned a 50% inhibitory concentration (IC50) of 50 to 250 nM. Still for that read-out and setting: under `Cn1cc(-c2ccc3c(C(=O)N[C@H]4CC5(C4)C[C@H](Oc4ncccc4C(N)=O)C5)cnn3c2C2CC2)cn1` (stereo partly drawn) [Example 357, N-((aR)-6-((3-carbamoylpyridin-2-yl)oxy)spiro[3.3]heptan-2-yl)-7-cyclopropyl-6-(1-methyl-1H-pyrazol-4-yl)pyrazolo[1,5-a]pyridine-3-carboxamide] stands below 5 nM. Same read-out and setting: then `NC(=O)c1cccnc1OC1CC2(CC(NC(=O)c3cnn(-c4ccccc4Cl)c3)C2)C1` (stereo not shown) [Example 397], with 5 to 50 nM.

As to `Cc1nc(-c2cc(C#N)cc(C(=O)N[C@H]3CC4(C3)C[C@H](Oc3ncccc3C(N)=O)C4)c2)cs1` (stereo partly drawn) [Example 203, 2-(((aR)-6-(3-cyano-5-(2-methylthiazol-4-yl)benzamido)spiro[3.3]heptan-2-yl)oxy)nicotinamide, trifluoroacetate], the IC50 fell in the range of 5 to 50 nM. Turning to `CC(C)(O)COc1ccc2c(C(=O)NC3CC4(C3)CC(Oc3cc(CC5CCNC5)ccc3C(N)=O)C4)cnn2c1` (stereo not shown) [Example 304, N-(6-(2-carbamoyl-5-(pyrrolidin-3-ylmethyl)phenoxy)spiro[3.3]heptan-2-yl)-6-(2-hydroxy-2-methylpropoxy)pyrazolo[1,5-a]pyridine-3-carboxamide], the IC50 fell in the range of 5 to 50 nM. `Cn1nc(C(=O)N[C@H]2CC3(C2)C[C@H](Oc2ncccc2C(N)=O)C3)cc1OCC(F)(F)C(F)F` (stereo partly drawn) [Example 87, 2-((aR)-6-(1-methyl-5-(2,2,3,3-tetrafluoropropoxy)-1H-pyrazole-3-carboxamido)spiro[3.3]heptan-2-yl)oxy) nicotinamide, trifluoroacetate] had a 50% inhibitory concentration (IC50) of 50 to 250 nM. On the same count and under the same terms, then `CC(C)(O)COc1ccc2c(C(=O)NC3CC4(C3)CC(Oc3cc(CCCCN)ccc3C(N)=O)C4)cnn2c1` (stereo not shown) [Example 305, N-(6-(5-(4-aminobutyl)-2-carbamoylphenoxy)spiro[3.3]heptan-2-yl)-6-(2-hydroxy-2-methylpropoxy)pyrazolo[1,5-a]pyridine-3-carboxamide], with below 5 nM.

Still in this experiment, the particulars now being: read-out: ROCK2 Activity (ROCK2 IC50); 5 μM ATP, 1.5 μM peptide substrate, pH 7.5.
As for `Cn1cc(-c2ccc3c(C(=O)NC4CC5(C4)CC(Oc4ncccc4C(N)=O)C5)nc(C(F)F)n3c2)cn1` [Example 439, N-((aR)-6-((3-carbamoylpyridin-2-yl)oxy)spiro[3.3]heptan-2-yl)-3-(difluoromethyl)-6-(1-methyl-1H-pyrazol-4-yl)imidazo[1,5-a]pyridine-1-carboxamide], the 50% inhibitory concentration (IC50) is below 5 nM. Still for that read-out and setting: then `Cc1c(-c2ccc3c(C(=O)NC4CC5(C4)CC(Oc4ncccc4C(N)=O)C5)nc(C)n3c2)cnn1C` [Example 458, N-((aR)-6-((3-carbamoylpyridin-2-yl)oxy)spiro[3.3]heptan-2-yl)-6-(1,5-dimethyl-H-pyrazol-4-yl)-3-methylimidazo[1,5-a]pyridine-1-carboxamide], with 5 to 50 nM. Same read-out and setting: under `CC(=O)N(C)Cc1ccc2c(C(=O)NC3CC4(C3)CC(Oc3ncccc3C(N)=O)C4)nc(C(F)F)n2c1` [Example 453, N-((aR)-6-((3-carbamoylpyridin-2-yl)oxy)spiro[3.3]heptan-2-yl)-3-(difluoromethyl)-6-((N-methylacetamido)methyl)imidazo[1,5-a]pyridine-1-carboxamide] stands 5 to 50 nM; under `Cn1cncc1-c1ccc2c(C(=O)NC3CC4(C3)CC(Oc3ncccc3C(N)=O)C4)nc(C(F)F)n2c1` [Example 437, N-((aR)-6-((3-carbamoylpyridin-2-yl)oxy)spiro[3.3]heptan-2-yl)-3-(difluoromethyl)-6-(1-methyl-1H-imidazol-5-yl)imidazo[1,5-a]pyridine-1-carboxamide], 5 to 50 nM.
